For one data set, the target named is T1, Factor XIIa (Homo sapiens, UniProt P00748).
T1 sequence (P00748 373-615 limits assumed): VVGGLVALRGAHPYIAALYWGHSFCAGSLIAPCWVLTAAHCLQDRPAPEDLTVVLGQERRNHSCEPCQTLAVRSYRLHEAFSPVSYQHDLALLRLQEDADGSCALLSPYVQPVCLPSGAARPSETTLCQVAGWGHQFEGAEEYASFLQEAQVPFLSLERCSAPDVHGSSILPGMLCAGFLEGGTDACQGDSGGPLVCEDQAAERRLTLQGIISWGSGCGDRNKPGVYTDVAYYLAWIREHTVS
As to the kind of experiment: In vitro inhibition of serine proteases: factor XIIa. The class given is biochemical. How it is done: (§1) To determine the inhibitory activity, 200 μl of Tris buffer (0.05 mol/l, containing the inhibitor, 0.154 mol/l NaCl, 5% ethanol pH 8.0), 25 μl of substrate (Pefachrome UK or Bz-βAla-Gly-Arg-pNA in H2O; Pentapharm Ltd., Basle, Switzerland) and 50 μl of sc-urokinase (Ribosepharm GmbH, Haan, Germany) were incubated at 25° C. After 3 min the reaction was stopped by adding 25 μl of acetic acid (50%), and the absorption at 405 nm was determined by means of a Microplate Reader (MR 5000, Dynatech, Denkendorf, Germany). Ki values were determined according to Dixon by linear regression using a computer program. The Ki values are the mean values of at least three determinations with a standard deviation of less than 25%.
(§2) The inhibition activities of the enzymes used were determined according to the principle described in Example 3.

In data set [1] the target is Sc-tPA (single chain tPA) (Homo sapiens, UniProt P00750). Put plainly: In vitro inhibition of serine proteases: Sc-tPA. The class given is biochemical. How it is done: as §1, §2
Data set [2] is described as follows: Phase I clinical trial in healthy male volunteers (WX/50-001). The class given is in vivo, human. The settings on record: for tolerability: all dose levels. As for the experimental part: In the first clinical trial with WX-UK1 (WX/50-001) the drug was investigated in a double-blind, randomized, three-way cross-over, placebo controlled phase I study focussing on pharmacokinetics, pharmacodynamics, safety, and tolerability of increasing doses of WX-UK1.
In this study six ascending i.v. Doses of WX-UK1 in the range of 0.01 to 0-3 mg/kg were administered and each dose was given to groups of six healthy male volunteers.

A further data set addresses Factor Xa (Homo sapiens, UniProt P00742). Put plainly: In vitro inhibition of serine proteases: factor Xa. The class given is biochemical. As for the experimental part:
Ki values were determined according to Dixon by linear regression using a computer program.

Sequence of Factor Xa (P00742 235-488 limits assumed): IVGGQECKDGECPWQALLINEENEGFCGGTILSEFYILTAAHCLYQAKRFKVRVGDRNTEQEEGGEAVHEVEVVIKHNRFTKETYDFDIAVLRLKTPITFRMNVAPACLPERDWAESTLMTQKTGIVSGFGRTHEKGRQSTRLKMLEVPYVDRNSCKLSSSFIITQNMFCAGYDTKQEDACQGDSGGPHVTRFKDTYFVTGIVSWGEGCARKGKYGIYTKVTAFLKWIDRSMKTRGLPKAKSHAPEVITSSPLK
Sequence of Factor Xa (P00742 41-179 partner limits assumed): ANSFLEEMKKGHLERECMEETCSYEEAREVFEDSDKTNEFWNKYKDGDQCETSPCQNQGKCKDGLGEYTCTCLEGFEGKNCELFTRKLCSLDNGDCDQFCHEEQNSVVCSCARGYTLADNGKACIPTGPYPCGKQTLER
Sequence of Sc-tPA (single chain tPA) (P00750 36-562): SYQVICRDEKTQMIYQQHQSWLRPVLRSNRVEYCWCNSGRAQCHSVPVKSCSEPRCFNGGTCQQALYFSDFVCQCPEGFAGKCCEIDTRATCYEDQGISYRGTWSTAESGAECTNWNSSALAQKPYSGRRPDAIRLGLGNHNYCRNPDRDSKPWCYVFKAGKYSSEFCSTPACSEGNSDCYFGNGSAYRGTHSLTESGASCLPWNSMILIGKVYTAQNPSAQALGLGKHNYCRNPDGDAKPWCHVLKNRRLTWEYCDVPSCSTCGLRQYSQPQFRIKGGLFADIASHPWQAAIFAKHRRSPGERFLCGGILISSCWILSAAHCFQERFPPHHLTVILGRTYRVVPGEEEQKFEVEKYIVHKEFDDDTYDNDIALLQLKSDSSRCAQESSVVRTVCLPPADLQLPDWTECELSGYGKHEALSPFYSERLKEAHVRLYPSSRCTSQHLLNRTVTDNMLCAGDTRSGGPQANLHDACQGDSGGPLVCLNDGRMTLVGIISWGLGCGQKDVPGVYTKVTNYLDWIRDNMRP

What is called Ki is the dissociation constant of the complex between target and ligand, obtained from inhibition or displacement. A higher Ki goes with lower affinity. Regarding `CCOC(=O)N1CCN(C(=O)[C@H](Cc2cccc(C(=N)N)c2)NS(=O)(=O)c2c(C(C)C)cc(C(C)C)cc2C(C)C)CC1.Cl` [uPA inhibitor, Nα-2,4,6-Triisopropylphenylsulfonyl-(L)-3-amidinophenylalanine 4-ethoxycarbonylpiperazide hydrochloride], the Ki at Factor XIIa was determined as 13 µM; in data set [1], 4.9 µM; on Factor Xa, 1.7 µM. Besides, the “changes in vital signs, ECG parameters, general safety laboratory parameters and adverse event profiles” value in data set [2] (attributable to the study drug) is reported as “No changes”. The “mean increases of coagulation parameters PT, aPTT and TT” value in data set [2] (doses of 0.05 mg/kg and higher, end of infusion, 0-5% with placebo) is 6-13%. Also, the “dose proportionality in PK studies” value in data set [2] (healthy volunteers) was “good dose proportionality”. In addition, the “systemic and local safety profile” value in data set [2] (healthy volunteers) is “advantageous systemic and local safety profile”. Also, in data set [2] (human, in vivo), the bleeding times result is given as “unchanged”. The drug-induced hemolysis result in data set [2] (human, in vivo) is given as “no indication”. Further, in data set [2] (human, in vivo), the “time for coagulation parameters to return to baseline” value was no more than 15 min. The “time of maximum plasma concentrations” value in data set [2] (i.v. infusion (FIG. 10)) is listed as “at the end of the 30 min. infusion period”. For the same compound, in data set [2] (i.v. infusion, healthy male volunteers), the “mean terminal half lives” value lay within 10 to 12 h. For the same compound, the tolerability entry was “well tolerated” in data set [2] (i.v. infusion, healthy volunteers, listed as WK-UK1, hydrochloride) and “very well tolerated” in data set [2] (i.v. infusion, healthy volunteers, listed as WX-UK1, hydrochloride). Moreover, the “renal excretion of the parent compound” value in data set [2] (share of the dose) was “less then one percent”.

The record behind these values is patent US7342018B2, “Urokinase inhibitors and uses thereof” (Wilex AG, priority 1998, dated 2008).
